# ChEMBL document CHEMBL1201862, “PubChem BioAssay data set” (2004)
# Activity calls are given as the source filed them.
# How the values were obtained:
# [1] = A cytotoxicity screen of small molecule inhibitors of the PhoP region in Salmonella typhi identified in the primary screen. [Related pubchem assays: 1850, 1864, 1985 ]; format: functional
# [2] = Trypanosoma cruzi growth suppression in host cells – NIH3T3 host cells, beta-gal luminescence, confirmation (AID 2044); format: functional, cell-based;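 note: intracellular parasites grown in NIH/3T3 mouse fibroblasts as host cells; luminescent beta-galactosidase reporter signal from transgenic T. cruzi replicating inside host cells; inhibitors lower the luminescence signal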
# [3] = alpha-synuclein stem-loop luciferase translation blockers – H4 neuroglioma cells, luminescence, confirmation (AID 1988); format: functional, cell-based
# [4] = non-specific 3'UTR reporter inhibition in Clone20-Shn3RL – cell-based, Renilla luciferase, cherry-picked, counter-screen for Shn3 inhibitor project, dose response (AID 624133); format: functional
# [5] = target: T1, Short transient receptor potential channel 4 (Mus musculus, UniProt Q9QUQ5); experiment: block of DAMGO-driven TRPC4 calcium entry – cell-based, HEK293 TRPC4/mu-opioid, Fluo-4 calcium, dose response (AID 434942); format: functional;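 note: potency of inhibitors blocking the TRPC4 calcium response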
# T1 sequence (Q9QUQ5 whole entry): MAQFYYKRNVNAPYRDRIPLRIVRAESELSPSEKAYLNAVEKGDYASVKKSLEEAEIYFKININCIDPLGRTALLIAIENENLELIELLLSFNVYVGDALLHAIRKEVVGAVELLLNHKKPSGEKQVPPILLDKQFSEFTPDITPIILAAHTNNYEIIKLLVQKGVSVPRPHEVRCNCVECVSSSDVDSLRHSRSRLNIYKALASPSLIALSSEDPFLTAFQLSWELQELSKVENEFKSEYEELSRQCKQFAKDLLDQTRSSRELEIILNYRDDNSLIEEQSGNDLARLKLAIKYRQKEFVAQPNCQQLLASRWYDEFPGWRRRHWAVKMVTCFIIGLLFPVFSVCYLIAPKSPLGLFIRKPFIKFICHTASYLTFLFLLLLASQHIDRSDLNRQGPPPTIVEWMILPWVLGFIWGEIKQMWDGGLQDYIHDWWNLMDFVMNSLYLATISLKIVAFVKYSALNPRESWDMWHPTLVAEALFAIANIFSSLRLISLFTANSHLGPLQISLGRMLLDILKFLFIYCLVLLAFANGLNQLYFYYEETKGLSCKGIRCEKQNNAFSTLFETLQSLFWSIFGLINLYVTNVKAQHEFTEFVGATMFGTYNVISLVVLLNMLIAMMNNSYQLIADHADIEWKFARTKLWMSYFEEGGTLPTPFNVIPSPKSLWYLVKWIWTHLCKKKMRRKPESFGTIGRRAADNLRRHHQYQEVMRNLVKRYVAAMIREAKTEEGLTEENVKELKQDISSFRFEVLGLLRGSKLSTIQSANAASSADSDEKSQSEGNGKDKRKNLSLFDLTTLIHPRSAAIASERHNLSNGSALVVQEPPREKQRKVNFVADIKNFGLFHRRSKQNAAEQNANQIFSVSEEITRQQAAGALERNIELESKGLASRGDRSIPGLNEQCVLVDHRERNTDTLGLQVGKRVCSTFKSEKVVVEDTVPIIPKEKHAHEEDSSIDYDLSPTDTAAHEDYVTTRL
# [6] = reduction of Shn3 3'UTR-driven luciferase in osteoblasts – cell-based, Clone20 osteoblasts, firefly luciferase, cherry-picked, dose response (AID 624132); format: functional;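 note: firefly luciferase luminescence from reporter carrying the Shn3 3'UTR in osteoblasts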
# [7] = loss of viability in HepG2 cells – cell-based, CellTiter-Glo, cherry-picked, cytotoxicity control for Shn3 inhibitor project, dose response (AID 624134); format: functional
# [8] = NIH3T3 cell viability loss – ATP luminescence, mouse fibroblasts, counter-screen, dose response (AID 2010); format: functional, cell-based;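 note: cells exposed to compound for about 90 hours before reading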
# [9] = luciferase reporter signal suppression in cells – H4 neuroglioma cells, luminescence, dose response (AID 1990); format: functional, cell-based
# [10] = Luminescence Cell-Based Dose Response HTS to Identify Inhibitors of 5'UTR Stem-Loop Driven Prion Protein mRNA Translation in H4 Neuroglioblastoma Cells. [Related pubchem assays: 1827 (Project Summary), 1813 (Primary HTS)]; format: functional
# [11] = target: FAD-linked sulfhydryl oxidase ALR (Homo sapiens, UniProt P55789); experiment: ALR-catalysed DTT oxidation blockers – biochemical, H2O2 detection, luminescence, cherry-pick, dose response (AID 493248)
# Chain of FAD-linked sulfhydryl oxidase ALR (P55789 whole entry): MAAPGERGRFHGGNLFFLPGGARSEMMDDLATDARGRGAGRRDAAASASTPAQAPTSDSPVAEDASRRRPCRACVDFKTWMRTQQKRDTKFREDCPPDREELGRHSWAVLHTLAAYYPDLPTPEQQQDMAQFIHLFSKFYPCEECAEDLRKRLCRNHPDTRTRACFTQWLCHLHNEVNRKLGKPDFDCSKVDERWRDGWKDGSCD
# Caspase-6 = target: T2, Caspase-6 (Homo sapiens, UniProt P55212); experiment: inhibition of CASP6 peptide cleavage – biochemical, VEID-R110 fluorescence, cherry-pick, dose response (AID 720632)
# T2 sequence (P55212 whole entry): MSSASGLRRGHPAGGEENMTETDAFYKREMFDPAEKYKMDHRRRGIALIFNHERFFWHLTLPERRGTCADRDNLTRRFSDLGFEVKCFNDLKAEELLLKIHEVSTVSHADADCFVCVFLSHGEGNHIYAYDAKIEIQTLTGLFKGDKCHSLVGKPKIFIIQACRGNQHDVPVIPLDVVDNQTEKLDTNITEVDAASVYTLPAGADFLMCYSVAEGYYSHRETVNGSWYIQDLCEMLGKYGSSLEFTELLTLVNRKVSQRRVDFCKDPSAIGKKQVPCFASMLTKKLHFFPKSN
# Large T antigen = Large T antigen (Simian virus 40, UniProt P03070); format: functional, Betapolyomavirus macacae;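 note: Confirmatory-stage PubChem screen for compounds that inhibit SV40 T antigen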
# Chain of Large T antigen (P03070 whole entry): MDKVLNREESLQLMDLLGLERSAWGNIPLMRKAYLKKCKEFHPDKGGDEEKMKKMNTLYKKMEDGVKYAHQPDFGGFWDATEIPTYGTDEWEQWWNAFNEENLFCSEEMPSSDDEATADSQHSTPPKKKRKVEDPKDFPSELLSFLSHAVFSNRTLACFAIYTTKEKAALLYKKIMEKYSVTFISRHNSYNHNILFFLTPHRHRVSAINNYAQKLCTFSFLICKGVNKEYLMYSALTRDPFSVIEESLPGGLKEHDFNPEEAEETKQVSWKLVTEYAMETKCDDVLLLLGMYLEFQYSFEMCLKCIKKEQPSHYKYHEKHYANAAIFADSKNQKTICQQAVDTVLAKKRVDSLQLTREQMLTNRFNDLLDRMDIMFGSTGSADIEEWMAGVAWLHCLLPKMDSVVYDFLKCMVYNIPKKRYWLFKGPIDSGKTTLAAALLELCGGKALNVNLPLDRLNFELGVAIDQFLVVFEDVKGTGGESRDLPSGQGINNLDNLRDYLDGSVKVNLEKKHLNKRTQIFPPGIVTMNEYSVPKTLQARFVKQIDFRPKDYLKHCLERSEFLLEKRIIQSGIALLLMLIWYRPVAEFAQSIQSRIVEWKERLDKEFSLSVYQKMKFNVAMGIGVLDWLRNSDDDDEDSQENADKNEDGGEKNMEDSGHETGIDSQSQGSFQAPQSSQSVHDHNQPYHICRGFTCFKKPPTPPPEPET
# [12] = target: T3, Replicative DNA helicase DnaB (Mycobacterium tuberculosis, UniProt P9WMR3); experiment: DnaB intein splicing inhibitors, dose response, biochemical, cell-free fluorescence (AID 449749); format: functional
# T3 sequence (P9WMR3 whole entry): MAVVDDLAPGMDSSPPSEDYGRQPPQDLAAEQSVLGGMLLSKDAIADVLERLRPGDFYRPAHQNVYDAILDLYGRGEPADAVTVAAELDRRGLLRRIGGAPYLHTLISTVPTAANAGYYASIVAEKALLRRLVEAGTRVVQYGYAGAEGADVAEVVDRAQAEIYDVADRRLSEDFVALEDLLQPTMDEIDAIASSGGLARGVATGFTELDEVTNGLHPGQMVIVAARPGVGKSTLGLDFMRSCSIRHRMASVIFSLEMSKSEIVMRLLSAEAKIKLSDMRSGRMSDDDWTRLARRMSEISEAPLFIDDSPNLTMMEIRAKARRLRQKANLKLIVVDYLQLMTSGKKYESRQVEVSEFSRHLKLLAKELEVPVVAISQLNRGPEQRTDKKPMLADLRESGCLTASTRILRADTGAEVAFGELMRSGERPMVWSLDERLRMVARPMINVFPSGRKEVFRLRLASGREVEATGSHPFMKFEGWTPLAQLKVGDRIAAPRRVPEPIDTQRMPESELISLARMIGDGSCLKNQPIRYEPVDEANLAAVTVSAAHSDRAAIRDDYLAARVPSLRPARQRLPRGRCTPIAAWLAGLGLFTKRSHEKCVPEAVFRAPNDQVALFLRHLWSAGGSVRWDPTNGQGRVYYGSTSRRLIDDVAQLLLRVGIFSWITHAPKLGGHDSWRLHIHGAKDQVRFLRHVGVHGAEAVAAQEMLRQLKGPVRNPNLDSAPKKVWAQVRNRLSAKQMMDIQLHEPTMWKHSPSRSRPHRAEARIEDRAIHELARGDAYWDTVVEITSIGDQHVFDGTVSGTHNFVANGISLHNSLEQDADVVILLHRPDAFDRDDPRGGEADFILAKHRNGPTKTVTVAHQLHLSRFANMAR
# Protein RecA = target: T4, Protein RecA (Mycobacterium tuberculosis, UniProt P9WHJ3); experiment: Fluorescence Cell-Free Homogeneous Dose Retest to Identify Inhibitors of RecA-Intein Splicing Activity. [Related pubchem assays (depositor defined):AID2097, AID2223, AID489010, AID492950]; format: functional
# T4 sequence (P9WHJ3 whole entry): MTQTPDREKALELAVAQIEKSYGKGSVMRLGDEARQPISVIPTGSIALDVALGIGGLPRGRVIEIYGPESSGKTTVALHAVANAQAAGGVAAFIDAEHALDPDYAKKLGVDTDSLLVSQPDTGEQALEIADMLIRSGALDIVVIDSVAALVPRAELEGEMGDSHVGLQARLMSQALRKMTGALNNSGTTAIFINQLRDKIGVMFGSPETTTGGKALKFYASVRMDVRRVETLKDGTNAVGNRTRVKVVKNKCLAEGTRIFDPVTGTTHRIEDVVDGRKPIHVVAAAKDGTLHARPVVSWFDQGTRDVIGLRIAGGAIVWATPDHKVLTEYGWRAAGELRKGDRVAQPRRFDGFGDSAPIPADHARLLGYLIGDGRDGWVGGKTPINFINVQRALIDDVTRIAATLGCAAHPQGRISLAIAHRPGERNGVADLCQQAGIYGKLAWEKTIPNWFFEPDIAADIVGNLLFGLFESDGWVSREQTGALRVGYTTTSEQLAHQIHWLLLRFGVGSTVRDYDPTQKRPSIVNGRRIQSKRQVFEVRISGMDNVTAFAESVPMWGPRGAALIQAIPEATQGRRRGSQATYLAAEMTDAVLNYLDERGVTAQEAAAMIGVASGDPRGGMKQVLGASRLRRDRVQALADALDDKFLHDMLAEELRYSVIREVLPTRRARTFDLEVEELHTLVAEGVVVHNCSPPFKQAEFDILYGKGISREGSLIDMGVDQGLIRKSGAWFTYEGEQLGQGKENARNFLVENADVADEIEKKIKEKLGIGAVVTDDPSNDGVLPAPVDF
# Cytochrome P450 2C9 = Cytochrome P450 2C9 (Homo sapiens, UniProt P11712)
# Chain of Cytochrome P450 2C9 (P11712 whole entry): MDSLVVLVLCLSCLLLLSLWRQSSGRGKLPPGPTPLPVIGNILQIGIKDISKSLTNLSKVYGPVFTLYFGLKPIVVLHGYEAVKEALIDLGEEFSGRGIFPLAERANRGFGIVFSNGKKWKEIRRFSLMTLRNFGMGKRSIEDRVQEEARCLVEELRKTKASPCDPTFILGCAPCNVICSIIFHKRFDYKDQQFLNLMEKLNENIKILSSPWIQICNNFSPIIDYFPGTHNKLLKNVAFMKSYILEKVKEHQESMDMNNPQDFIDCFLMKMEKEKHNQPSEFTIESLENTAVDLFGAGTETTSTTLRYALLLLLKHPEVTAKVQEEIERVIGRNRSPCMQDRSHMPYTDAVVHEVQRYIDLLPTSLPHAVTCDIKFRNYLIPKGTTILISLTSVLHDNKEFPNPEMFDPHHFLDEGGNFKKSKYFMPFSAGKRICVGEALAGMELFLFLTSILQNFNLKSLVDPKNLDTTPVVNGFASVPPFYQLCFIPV
# [13] = THP-1 cell cytotoxicity, dose response, cytotoxicity control for non-replicating M. tuberculosis project (AID 489025); format: functional
# cells = format: functional
# [14] = microbe, parasite or virus in culture; format: functional; details: Mycobacterium tuberculosis
# [15] = target: T5, Rac GTPase-activating protein 1 (Homo sapiens, UniProt Q9H0H5); experiment: blockers of MgcRacGAP-driven Rac1 GTP hydrolysis – biochemical, ADP Hunter fluorescence, primary and confirmatory, confirmation (AID 624330); format: functional
# T5 sequence (Q9H0H5 whole entry): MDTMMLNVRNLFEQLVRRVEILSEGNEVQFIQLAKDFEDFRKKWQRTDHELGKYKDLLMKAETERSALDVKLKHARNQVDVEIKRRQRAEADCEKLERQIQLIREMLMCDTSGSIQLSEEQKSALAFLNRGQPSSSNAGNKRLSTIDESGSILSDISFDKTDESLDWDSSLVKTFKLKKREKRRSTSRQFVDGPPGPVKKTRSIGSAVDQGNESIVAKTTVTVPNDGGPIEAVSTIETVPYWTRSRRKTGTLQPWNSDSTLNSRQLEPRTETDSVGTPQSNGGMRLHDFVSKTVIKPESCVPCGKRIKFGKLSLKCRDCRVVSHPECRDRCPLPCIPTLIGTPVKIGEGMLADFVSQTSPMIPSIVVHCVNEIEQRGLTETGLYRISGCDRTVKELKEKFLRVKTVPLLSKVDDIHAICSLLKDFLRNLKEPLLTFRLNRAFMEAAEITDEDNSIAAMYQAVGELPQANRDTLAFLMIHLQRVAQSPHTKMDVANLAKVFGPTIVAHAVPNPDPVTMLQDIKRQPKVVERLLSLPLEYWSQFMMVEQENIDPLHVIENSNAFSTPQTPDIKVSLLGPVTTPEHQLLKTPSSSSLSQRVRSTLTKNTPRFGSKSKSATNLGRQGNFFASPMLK
# [16] = blockers of bursicon-stimulated LGR2 cAMP reporter – cell-based, HEK293, CRE-luciferase reporter, cherry pick, set 2, dose response (AID 743343); format: functional;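 note: transfected cells were stimulated with diluted bursicon conditioned medium after compound addition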
# [17] = blockade of melanocortin 4 receptor signaling – cell-based, plate reader, cherry pick, counter-screen for LGR2 antagonist project, dose response (AID 743444); format: functional;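 note: transfected HEK 293 cells stimulated with alpha-MSH peptide; potency of inhibitors of the alpha-MSH evoked signal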
# H9c2 = experiment: cells; format: functional, cell-based; details: Rattus norvegicus, H9c2, Myocardium;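 note: confirmatory concentration-response retest of ultra-high-throughput screening hits for modulation of myocardial damage; cell death induced by hydrogen peroxide oxidative stress; compound pretreatment for 60 min then peroxide exposure for 2 h; potency is for protecting the cells against peroxide damage rather than for killing them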
# [18] = P. falciparum Dd2 growth inhibitors, dose response, SYBR Green, cherry-picked samples (AID 1159567); format: functional, cell-based
compound,measurement,setting,value
Nc1[nH]cnc2nc(SCC(=O)Nc3cccc(C(F)(F)F)c3)nc1-2,EC50,[1],> 50 µM (active)
CCOc1cc(CNCCCN2CCOCC2)cc(Br)c1OCc1ccccc1Cl,EC50,[2],0.539 µM (active)
same,EC50,[3],> 120 µM (not active)
same,AC50,[4],19.3 µM (active)
same,EC50,[5],4.22 µM (active)
same,AC50,[6],9.31 µM (active)
same,AC50,[7],11 µM (active)
same,EC50,[8],12 µM (active)
same,EC50,[9],> 120 µM (not active)
same,EC50,[10],> 120 µM (not active)
O=Cc1ccc(N2CCCCCC2)cc1,EC50,[1],> 50 µM (active)
CCOC(=O)c1nc2cc3n(c(CC(C)C)c-2c1C)CC(C)=C3C,EC50,[1],> 50 µM (active)
NC(=O)CN1N=C(c2cc(Cl)sc2Cl)CSC1=O,EC50,[1],> 50 µM (active)
CC1CC(C)CN(S(=O)(=O)c2cccc3cccnc23)C1 (centres undefined),EC50,[1],> 50 µM (active)
same,AC50,[11],17.4 µM (active)
CC(Oc1ccc(F)cc1)C(=O)Nc1cccc(-c2nn[nH]n2)c1 (centres undefined),AC50,Caspase-6,32.6 µM (active)
COc1ccc(/C=C(/C#N)C(=O)Nc2ccc(O)cc2)cc1C(=O)O,IC50,Large T antigen,36.9 µM (active)
same,AC50,[12],32.1 µM (active)
same,EC50,Protein RecA,8.43 µM (active)
COc1ccc2c(C(=O)CN(C)C3CCCCC3)c[nH]c2c1,EC50,[1],> 50 µM (active)
CCOC(=O)N1CCN(C(=O)CNCc2cccs2)CC1.O=C(O)C(=O)O,AC50,Cytochrome P450 2C9,inconclusive
Oc1cc(-c2ccc(Br)cc2)[nH]n1,IC50,Large T antigen,53.9 µM (active)
same,AC50,[12],3.06 µM (active)
same,EC50,Protein RecA,0.718 µM (active)
Cn1c(SCc2c(F)cccc2Cl)nc2c(c1=O)SCC2,CC50,[13],> 40 µM (active)
Nc1nc2ccccc2n1CCOc1ccccc1Cl,IC50,cells,23.8 µM (active)
same,CC50,[14],> 40 µM (active)
same,CC50,[13],20.6 µM (active)
CCN(CC)c1ccc(NC(=O)COC(=O)COc2ccccc2[N+](=O)[O-])cc1,IC50,Large T antigen,10.4 µM (active)
CN(C)c1ccc(NC(S)=NCC2CCCO2)cc1 (centres undefined),IC50,Large T antigen,14.3 µM (active)
same,IC50,[15],85.6 µM (active)
c1nc(CCO[C@H]2CCCCO2)cc2cc3c(cc12)OCO3,AC50,[16],2.56 µM (active)
same,AC50,[17],3.45 µM (active)
COc1cc(C(=O)N/N=C/c2ccc(OC(=O)c3cccc(C)c3)c(OC)c2)ccc1O,EC50,[1],> 50 µM (active)
same,IC50,H9c2,> 79 µM (inactive)
Clc1ccc(CN2CCN(/N=C/c3ccco3)CC2)cc1,EC50,[1],> 50 µM (active)
C/C(=N\NC(=O)c1cc(O)ccc1O)c1cccc(NC(=O)c2cccc(Cl)c2)c1,AC50,Caspase-6,1.18 µM (active)
C[C@@H]1CN([C@@H](C)CO)S(=O)(=O)c2ccc(C#CC3(O)CCCC3)cc2O[C@H]1CN(C)C(=O)c1ccccc1,AC50,[18],4.33 µM (active)
COc1ccccc1NC(=O)N1CCCCN2[C@H](C1)[C@H](c1ccc(C#CC3CC3)cc1)[C@@H]2CO,AC50,[18],5.95 µM (active)
